Legend:
[1] = tested on: tumor; assay: Anti-tumor effect in mice after oral liposomal betulinic acid; assay type: in vivo; settings: extrapolated from 150 mg/kg weekly oral dose in mice
[2] = tested on: non-cancerous healthy cells; settings: in vitro; cited from earlier work
[3] = at concentrations effectively limiting cancer growth, up to 500 mg per kg bodyweight; cited from earlier work
[4] = tested on: stearoyl-CoA-desaturase (SCD-1); settings: role: inhibitor; cited from earlier work
[5] = tested on: cancer cell lines; settings: cited from earlier work
[6] = tested on: tumor; settings: oral, liposomal betulinic acid; cited from earlier work
[7] = at a range of molar ratios; cited from earlier work
[8] = tested on: tumor growth of predominant cancer types; settings: preclinically in vivo; cited from earlier work

## C=C(C)[C@@H]1CC[C@]2(C(=O)O)CC[C@]3(C)[C@H](CC[C@@H]4[C@@]5(C)CC[C@H](O)C(C)(C)[C@@H]5CC[C@]43C)[C@@H]12 [betulinic acid, (3β)-3-Hydroxylup-20 (29)-en-28-oic acid]
[1]
  Weekly dose extrapolated to an individual of 80 kg: 12 gr
[2]
  Cytotoxicity for non-cancerous healthy cells: absent
[3]
  Signs of toxicity in animal experiments: no signs of toxicity were observed
[4]
  Effect on SCD-1 activity: inhibit the activity of stearoyl-CoA-desaturase (SCD-1)
[5]
  Activity against cancer types in vitro: broad activity against all prevalent cancer types in vitro
[6]
  Weekly orally administered dose required for the observed anti-tumor effects in mice: 150 mg/kg bodyweight
[7]
  Miscibility with outer leaflet membrane phospholipids: miscible
[8]
  Tumor growth inhibition: inhibits tumor growth of predominant cancer types

## C=C(C)[C@@H]1CC[C@]2(C)CC[C@]3(C)[C@H](CC[C@@H]4[C@@]5(C)CC[C@H](O)C(C)(C)[C@@H]5CC[C@]43C)[C@@H]12 [lupeol, (3β)-Lup-20 (29)-en-3-ol]
[7]
  Miscibility with outer leaflet membrane phospholipids: miscible
